Source: ChEMBL document CHEMBL1201862, “PubChem BioAssay data set” (2004)
Activity calls are given as the source filed them.

Assays:
[1] = biological target: Photoreceptor-specific nuclear receptor (Homo sapiens, UniProt Q9Y5X4); assay type: functional;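 also: potency for compounds that break the NR2E3 corepressor complex and count as activators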
[2] = biological target: T1, RNA-binding protein pos-1 (Caenorhabditis elegans, UniProt G5EF15); test: disruptors of C. elegans POS-1 RNA interaction – biochemical, fluorescence polarization, dose response (AID 1964);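 also: purified POS-1 fused to maltose binding protein made in E. coli; potency of compounds blocking POS-1 binding to fluorescent RNA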
T1 sequence (G5EF15 whole entry): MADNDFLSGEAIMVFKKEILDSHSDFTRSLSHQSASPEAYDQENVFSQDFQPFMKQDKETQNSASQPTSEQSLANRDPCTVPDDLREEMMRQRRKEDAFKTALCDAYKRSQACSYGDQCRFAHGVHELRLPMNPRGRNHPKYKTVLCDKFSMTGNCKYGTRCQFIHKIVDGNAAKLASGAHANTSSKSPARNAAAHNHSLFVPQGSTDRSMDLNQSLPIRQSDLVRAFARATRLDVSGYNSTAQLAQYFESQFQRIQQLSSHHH

[3] = biological target: T2, Zinc finger protein mex-5 (Caenorhabditis elegans, UniProt Q9XUB2); test: potency of MEX-5 RNA-binding blockers – biochemical, C. elegans, fluorescence polarization, dose response (AID 1960)
T2 sequence (Q9XUB2 whole entry): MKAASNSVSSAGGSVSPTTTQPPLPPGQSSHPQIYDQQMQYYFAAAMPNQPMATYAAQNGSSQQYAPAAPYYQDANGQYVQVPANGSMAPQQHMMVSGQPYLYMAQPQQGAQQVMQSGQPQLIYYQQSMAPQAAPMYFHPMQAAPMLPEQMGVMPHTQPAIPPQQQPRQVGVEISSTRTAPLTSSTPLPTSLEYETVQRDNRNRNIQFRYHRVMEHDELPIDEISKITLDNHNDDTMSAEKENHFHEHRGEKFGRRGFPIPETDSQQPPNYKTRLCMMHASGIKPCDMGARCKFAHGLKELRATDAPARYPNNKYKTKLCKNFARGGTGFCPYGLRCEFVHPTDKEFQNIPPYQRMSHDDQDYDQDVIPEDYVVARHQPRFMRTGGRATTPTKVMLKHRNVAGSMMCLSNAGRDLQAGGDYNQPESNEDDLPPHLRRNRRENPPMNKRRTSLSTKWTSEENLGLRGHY

[4] = biological target: Peroxisome proliferator-activated receptor gamma/Nuclear receptor corepressor 2 (Homo sapiens, UniProt P37231+Q9Y618); assay type: functional
Mucolipin-3 = biological target: T3, Mucolipin-3 (Homo sapiens, UniProt Q8TDD5); test: Dose response cell-based high-throughput screening assay for agonists of the transient receptor potential channel ML3 (TRPML3). [Related pubchem assays: 1526, 1424, 1448 ]; assay type: functional
T3 sequence (Q8TDD5 whole entry): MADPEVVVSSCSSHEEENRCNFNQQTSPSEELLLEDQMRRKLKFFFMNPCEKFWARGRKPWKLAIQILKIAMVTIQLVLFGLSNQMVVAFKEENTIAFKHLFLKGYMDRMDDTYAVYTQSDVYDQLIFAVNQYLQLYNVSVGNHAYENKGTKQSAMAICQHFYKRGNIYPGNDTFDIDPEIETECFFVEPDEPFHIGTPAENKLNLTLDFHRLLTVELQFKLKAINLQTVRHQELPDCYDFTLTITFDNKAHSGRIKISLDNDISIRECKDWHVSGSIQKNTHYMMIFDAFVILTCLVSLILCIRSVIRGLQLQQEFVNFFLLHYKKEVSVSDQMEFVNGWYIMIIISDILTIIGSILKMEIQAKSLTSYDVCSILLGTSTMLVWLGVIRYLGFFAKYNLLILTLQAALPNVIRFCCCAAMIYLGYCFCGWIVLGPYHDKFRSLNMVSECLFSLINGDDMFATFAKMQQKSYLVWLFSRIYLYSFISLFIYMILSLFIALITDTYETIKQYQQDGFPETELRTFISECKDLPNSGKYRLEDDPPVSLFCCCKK

Ion channel NompC = Ion channel NompC (Danio rerio, UniProt Q7T1G6); test: Fluorescence counterscreen assay for TRPML3 agonists: dose response cell-based high-throughput screening assay to identify agonists of the transient receptor potential channel N1 (TRPN1). [Related pubchem assays: 1526, 1424, 1448 ]; assay type: functional
[5] = blockers of CRF-binding protein–CRF-R2 complex – cell-based, uHTS hits, 384-well, dose response (AID 651639); assay type: functional, Homo sapiens; conditions: read-out: IC50_Mean
[6] = biological target: T4, Corticotropin-releasing factor receptor 2/Corticotropin-releasing factor-binding protein (Homo sapiens, UniProt P24387+Q13324); test: activators of CRF receptor 2 with binding protein – uHTS hits, confirmation (AID 602473); assay type: functional; conditions: read-out: EC50_Mean
T4 sequence (Q13324 whole entry): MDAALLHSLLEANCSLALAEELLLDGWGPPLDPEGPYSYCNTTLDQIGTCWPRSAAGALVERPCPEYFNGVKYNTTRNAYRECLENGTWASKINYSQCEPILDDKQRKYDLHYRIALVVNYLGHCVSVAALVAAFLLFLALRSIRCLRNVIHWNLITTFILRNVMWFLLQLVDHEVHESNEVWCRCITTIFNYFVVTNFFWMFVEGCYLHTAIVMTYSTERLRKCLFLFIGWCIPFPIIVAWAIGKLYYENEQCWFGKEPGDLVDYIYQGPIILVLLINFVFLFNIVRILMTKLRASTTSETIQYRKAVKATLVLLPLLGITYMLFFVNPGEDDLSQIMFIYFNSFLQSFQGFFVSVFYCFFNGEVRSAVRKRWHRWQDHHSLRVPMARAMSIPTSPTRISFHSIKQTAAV
T4 sequence (P24387 whole entry): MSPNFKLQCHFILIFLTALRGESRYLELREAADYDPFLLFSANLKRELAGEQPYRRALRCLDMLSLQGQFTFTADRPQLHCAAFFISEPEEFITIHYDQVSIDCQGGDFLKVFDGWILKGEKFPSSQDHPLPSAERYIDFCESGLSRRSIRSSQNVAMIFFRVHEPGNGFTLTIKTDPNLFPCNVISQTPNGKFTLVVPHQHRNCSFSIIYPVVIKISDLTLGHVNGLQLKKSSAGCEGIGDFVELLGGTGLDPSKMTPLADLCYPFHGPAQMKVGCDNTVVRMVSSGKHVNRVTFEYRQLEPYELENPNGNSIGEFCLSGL

[7] = biological target: T4, Corticotropin-releasing factor receptor 2/Corticotropin-releasing factor-binding protein; test: Dose Response confirmation of uHTS hits for small molecule antagonists of the CRF-binding protein and CRF-R2 receptor complex.; assay type: functional; conditions: read-out: IC50_Mean
[8] = biological target: T5, Neuropeptide Y receptor type 1 (Homo sapiens, UniProt P25929); assay type: functional;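 also: HEK293 cells with a CNG channel challenged with NPY then isoproterenol; potency as antagonist that reverses NPY suppression of cAMP signal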
T5 sequence (P25929 whole entry): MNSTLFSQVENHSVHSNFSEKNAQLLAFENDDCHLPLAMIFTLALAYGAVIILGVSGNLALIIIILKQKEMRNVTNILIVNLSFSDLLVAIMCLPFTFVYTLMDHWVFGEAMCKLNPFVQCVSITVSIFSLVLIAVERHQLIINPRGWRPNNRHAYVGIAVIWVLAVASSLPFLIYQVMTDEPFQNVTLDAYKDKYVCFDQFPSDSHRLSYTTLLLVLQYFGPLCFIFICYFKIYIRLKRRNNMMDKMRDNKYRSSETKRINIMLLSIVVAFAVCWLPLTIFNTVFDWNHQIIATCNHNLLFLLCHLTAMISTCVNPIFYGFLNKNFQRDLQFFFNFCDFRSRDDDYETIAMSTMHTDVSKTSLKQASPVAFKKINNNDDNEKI

[9] = biological target: T6, Neuropeptide Y receptor type 2 (Homo sapiens, UniProt P49146); assay type: functional, cell-based;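 also: HEK293 cells expressing the receptor and a CNG channel; stimulus was NPY near EC95 followed by isoproterenol to raise cAMP; antagonist potency measured as restoring cAMP signal that NPY suppresses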
T6 sequence (P49146 whole entry): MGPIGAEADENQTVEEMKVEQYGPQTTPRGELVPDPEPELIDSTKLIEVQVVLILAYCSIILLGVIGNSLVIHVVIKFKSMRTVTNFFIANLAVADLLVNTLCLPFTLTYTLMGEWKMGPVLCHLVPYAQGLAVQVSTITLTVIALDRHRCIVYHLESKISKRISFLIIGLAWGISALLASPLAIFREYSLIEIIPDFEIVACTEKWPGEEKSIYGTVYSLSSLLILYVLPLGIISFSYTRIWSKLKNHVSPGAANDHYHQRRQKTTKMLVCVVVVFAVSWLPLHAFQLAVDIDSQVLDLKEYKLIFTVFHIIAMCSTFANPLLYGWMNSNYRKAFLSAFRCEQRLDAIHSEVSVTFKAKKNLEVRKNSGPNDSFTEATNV

[10] = biological target: Neurotensin receptor type 1 (Homo sapiens, UniProt P30989); assay type: functional;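 also: Image-based confirmatory dose-response assay measuring agonist activity at NTR1; NTR1-expressing U2OS osteosarcoma cells imaged for beta-arrestin GFP spot formation; agonist potency where compounds increase beta-arrestin recruitment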
Streptokinase A = biological target: T7, Streptokinase A (Streptococcus pyogenes serotype M1, UniProt P10520); test: viability-normalized secreted streptokinase activity reduction – plasminogen activation absorbance, OD405, dose response (AID 1914); assay type: functional, Streptococcus pyogenes M1 GAS;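 also: secreted streptokinase activity via plasminogen activation per viability signal from cell pellet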
T7 sequence (P10520 whole entry): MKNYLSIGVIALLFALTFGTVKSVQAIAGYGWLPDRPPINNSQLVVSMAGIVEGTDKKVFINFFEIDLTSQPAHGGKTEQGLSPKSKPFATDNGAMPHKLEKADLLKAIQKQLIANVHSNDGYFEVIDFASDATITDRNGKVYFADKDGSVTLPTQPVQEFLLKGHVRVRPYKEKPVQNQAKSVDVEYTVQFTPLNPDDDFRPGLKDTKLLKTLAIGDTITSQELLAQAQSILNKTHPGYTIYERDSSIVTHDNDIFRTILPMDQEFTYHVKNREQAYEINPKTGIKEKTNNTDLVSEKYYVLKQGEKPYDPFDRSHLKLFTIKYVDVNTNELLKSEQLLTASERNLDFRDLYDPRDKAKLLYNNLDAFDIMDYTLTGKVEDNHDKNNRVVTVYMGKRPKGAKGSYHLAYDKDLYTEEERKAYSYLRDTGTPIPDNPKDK

[11] = microbe, parasite or virus in culture; assay type: functional; conditions: Mycobacterium tuberculosis
Streptococcus = test: GAS UMAA2166 growth inhibition – luminescence, BacTiterGlo, counter-screen for streptokinase expression inhibitor project, dose response (AID 1915); assay type: functional, organism-based;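 also: potency for reduction of bacterial viability or growth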
[12] = test system: Streptococcus sp. 'group A'; test: Streptococcus pyogenes SK(-)GAS viability under kanamycin – luminescence, BacTiterGlo, confirmation, counter-screen for streptokinase expression inhibitor project, dose response (AID 1900); assay type: functional, organism-based
[13] = biological target: Melanin-concentrating hormone receptor 1 (Homo sapiens, UniProt Q99705); test: Fluorescence-based counterscreen for antagonists of the G-protein coupled receptor 7 (GPR7): cell-based high throughput dose response assay to identify antagonists of the melanin-concentrating hormone receptor 1 (MCHR1).; assay type: functional
[14] = biological target: T8, Neuropeptides B/W receptor type 1 (Homo sapiens, UniProt P48145); test: Fluorescence-based dose response cell-based high throughput screening assay to identify antagonists of the G-protein coupled receptor 7 (GPR7). [Related pubchem assays: 1952 (Screening assay (GPR7 antagonists).), 1880 (Summary AID.)]; assay type: functional
T8 sequence (P48145 whole entry): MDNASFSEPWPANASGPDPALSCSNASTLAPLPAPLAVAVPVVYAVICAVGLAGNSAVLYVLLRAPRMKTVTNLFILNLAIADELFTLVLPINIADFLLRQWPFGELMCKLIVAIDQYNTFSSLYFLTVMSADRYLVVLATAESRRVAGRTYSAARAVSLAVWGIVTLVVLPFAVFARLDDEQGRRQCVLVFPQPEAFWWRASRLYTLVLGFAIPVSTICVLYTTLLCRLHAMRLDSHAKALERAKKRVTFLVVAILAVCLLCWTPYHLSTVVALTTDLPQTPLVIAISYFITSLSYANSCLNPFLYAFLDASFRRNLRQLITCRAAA

Nonstructural protein 1 = Nonstructural protein 1 (Influenza A virus, UniProt Q194T2); assay type: functional, Influenza A virus (A/California/07/2009(H1N1))
[15] = biological target: NACHT, LRR and PYD domains-containing protein 3 (Homo sapiens, UniProt Q96P20); test: NALP3 inhibitors in yeast, dose response, luminescent (AID 488799); assay type: functional
[16] = biological target: Luciferin 4-monooxygenase (Photinus pyralis, UniProt P08659); test: Counter Screen for Luciferase-based Assay Positives. [Related pubchem assays: 620, 618, 411 ]
HT-1080 = test: HT1080 cell viability loss – fluorescence readout (AID 620); assay type: functional, cell-based; conditions: Homo sapiens
HEK293 = test: EBV LMP1 TES2 canonical NF-kB signalling blockers – cell-based, HEK293, luciferase, cherry-pick, dose response (AID 588343); assay type: functional; conditions: Homo sapiens
[17] = HEK-293T cell viability reduction – luminescence, B-cell screen hits, cytotoxicity control for BCR NF-kB inhibitor project, dose response (AID 489021); assay type: functional, cell-based;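 also: HEK-293T cells carrying an NF-kB luciferase reporter; cells exposed to compound for about 14 hours before viability readout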

Peroxisome proliferator-activated receptor gamma/Nuclear receptor corepressor 2, sequence (P37231 whole entry): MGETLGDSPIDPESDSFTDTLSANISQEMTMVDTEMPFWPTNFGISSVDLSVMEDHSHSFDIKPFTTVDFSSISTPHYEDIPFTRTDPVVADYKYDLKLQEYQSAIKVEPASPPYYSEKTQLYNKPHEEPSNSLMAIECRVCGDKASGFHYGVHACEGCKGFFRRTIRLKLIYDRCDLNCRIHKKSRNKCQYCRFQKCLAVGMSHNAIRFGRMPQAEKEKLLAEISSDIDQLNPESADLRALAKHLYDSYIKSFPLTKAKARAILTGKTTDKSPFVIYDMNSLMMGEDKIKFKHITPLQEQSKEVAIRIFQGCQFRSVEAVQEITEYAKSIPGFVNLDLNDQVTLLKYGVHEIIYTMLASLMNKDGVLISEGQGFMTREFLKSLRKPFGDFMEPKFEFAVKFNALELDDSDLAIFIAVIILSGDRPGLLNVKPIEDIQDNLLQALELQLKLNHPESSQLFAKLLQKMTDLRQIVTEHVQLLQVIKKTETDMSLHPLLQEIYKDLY
Peroxisome proliferator-activated receptor gamma/Nuclear receptor corepressor 2, sequence (Q9Y618 whole entry): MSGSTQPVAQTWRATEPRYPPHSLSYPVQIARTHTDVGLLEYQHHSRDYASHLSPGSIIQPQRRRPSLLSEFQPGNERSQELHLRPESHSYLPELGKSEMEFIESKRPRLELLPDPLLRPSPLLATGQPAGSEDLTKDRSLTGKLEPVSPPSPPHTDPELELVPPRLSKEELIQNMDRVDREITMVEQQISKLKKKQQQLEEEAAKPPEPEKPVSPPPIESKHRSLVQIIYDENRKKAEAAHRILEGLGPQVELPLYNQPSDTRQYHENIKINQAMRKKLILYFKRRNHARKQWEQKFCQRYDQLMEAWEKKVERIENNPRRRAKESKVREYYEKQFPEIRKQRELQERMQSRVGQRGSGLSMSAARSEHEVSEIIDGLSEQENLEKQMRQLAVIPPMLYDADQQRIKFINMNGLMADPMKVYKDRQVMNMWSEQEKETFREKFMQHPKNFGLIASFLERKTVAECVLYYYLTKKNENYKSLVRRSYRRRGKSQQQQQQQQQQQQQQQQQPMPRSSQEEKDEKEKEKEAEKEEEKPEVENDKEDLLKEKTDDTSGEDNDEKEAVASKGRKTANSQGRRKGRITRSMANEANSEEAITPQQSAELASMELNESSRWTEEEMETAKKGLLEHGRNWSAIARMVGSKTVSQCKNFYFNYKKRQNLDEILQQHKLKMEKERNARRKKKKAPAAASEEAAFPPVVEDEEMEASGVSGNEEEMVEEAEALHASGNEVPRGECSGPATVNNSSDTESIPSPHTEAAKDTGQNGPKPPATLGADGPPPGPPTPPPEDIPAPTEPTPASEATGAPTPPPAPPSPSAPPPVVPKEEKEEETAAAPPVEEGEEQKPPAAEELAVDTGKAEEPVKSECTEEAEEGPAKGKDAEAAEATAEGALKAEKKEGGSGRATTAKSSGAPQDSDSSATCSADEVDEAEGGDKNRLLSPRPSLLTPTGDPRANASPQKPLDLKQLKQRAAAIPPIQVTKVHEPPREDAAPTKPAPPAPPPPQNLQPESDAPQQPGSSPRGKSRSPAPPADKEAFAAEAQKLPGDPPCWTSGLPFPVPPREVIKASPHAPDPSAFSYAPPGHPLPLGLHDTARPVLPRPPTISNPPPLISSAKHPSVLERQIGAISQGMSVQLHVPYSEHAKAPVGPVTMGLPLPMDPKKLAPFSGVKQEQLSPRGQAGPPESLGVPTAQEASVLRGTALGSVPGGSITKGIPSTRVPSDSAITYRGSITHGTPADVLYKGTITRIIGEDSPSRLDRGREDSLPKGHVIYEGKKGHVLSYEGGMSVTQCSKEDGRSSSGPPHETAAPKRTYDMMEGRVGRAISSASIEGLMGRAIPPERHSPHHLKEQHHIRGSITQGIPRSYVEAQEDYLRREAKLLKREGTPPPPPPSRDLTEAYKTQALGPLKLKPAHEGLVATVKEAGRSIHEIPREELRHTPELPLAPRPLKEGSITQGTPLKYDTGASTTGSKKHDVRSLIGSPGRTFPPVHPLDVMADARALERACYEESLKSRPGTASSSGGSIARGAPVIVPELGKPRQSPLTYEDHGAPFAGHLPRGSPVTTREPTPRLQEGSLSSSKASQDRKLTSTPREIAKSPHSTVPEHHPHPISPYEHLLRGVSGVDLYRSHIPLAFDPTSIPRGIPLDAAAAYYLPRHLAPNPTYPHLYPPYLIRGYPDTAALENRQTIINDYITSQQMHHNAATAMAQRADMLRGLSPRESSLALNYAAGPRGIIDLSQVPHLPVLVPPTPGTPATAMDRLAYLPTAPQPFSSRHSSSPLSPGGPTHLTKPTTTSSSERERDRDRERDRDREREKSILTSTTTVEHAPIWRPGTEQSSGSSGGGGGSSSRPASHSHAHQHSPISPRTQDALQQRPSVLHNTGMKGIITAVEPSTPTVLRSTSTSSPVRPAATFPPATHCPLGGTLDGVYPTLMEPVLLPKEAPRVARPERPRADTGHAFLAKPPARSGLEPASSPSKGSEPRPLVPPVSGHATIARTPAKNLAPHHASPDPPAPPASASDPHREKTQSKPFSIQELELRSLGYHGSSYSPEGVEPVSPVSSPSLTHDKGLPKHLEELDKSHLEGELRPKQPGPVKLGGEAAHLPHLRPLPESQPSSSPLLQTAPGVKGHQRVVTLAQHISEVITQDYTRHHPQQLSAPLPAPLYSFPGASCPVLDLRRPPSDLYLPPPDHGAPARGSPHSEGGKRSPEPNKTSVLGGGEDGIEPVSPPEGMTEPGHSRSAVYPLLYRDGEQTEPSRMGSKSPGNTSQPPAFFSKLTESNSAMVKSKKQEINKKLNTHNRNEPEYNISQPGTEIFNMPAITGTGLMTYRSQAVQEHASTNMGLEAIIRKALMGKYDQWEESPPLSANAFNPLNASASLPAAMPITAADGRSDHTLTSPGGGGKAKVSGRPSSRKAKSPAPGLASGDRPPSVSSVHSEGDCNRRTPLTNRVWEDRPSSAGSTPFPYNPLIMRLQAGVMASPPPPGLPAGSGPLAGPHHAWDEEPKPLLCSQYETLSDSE
Ion channel NompC, sequence (Q7T1G6 whole entry): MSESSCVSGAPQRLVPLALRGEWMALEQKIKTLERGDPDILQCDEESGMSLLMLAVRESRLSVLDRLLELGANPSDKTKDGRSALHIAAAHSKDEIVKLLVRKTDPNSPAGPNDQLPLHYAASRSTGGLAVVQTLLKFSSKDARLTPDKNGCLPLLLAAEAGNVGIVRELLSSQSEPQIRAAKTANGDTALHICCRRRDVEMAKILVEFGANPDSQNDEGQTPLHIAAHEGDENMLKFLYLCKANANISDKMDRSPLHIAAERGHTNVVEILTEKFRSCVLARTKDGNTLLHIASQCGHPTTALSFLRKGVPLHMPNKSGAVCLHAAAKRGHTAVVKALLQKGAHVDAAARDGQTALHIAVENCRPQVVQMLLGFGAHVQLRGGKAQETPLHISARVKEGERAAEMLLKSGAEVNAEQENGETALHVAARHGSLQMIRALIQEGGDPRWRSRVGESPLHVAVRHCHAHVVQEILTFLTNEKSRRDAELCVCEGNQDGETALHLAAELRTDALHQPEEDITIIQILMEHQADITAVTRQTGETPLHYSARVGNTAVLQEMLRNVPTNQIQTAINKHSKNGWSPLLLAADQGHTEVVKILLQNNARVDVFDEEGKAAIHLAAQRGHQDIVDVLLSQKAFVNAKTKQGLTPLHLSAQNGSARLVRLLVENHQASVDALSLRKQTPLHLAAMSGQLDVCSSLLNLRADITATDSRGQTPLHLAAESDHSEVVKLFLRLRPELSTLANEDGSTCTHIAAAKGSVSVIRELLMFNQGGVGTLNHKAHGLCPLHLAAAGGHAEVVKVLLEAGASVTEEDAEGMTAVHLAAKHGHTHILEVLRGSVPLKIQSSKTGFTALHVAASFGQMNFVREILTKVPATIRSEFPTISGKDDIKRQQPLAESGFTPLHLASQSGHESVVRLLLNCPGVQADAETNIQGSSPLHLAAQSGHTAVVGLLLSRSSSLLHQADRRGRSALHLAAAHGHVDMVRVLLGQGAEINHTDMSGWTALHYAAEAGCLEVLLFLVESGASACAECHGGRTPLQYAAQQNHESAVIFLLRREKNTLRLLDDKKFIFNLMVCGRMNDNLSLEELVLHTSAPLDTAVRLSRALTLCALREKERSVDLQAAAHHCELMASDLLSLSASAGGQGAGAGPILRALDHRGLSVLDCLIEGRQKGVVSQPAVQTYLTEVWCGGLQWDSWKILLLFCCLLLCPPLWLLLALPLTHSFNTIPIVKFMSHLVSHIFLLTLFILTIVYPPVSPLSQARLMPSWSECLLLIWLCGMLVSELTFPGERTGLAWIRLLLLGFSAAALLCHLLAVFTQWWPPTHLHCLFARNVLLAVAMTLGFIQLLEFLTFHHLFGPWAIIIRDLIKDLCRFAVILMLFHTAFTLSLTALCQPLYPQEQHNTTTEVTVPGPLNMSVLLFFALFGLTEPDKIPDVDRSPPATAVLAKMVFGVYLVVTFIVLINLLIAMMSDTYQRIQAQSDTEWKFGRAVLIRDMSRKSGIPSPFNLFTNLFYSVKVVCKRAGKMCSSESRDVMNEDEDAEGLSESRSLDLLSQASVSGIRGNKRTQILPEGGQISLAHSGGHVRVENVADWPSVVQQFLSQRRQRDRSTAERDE
Photoreceptor-specific nuclear receptor, sequence (Q9Y5X4 whole entry, the tested form may be a part): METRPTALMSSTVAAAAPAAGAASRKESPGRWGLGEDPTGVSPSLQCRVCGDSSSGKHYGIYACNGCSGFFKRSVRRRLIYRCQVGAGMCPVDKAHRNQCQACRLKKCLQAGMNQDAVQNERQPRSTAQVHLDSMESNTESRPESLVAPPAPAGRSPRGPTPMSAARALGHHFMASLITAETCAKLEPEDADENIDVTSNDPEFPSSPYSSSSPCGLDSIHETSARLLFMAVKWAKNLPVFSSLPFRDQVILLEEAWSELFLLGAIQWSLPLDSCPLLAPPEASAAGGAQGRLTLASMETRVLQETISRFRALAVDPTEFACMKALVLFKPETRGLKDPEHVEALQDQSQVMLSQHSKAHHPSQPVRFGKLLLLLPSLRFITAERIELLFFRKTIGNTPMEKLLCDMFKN

With `CC(=O)Nc1ccc(NC(=O)C(C)OC(=O)/C(C#N)=C/c2ccc(N(C)C)cc2)cc1` (stereo unspecified) the IC50 [1] was > 39.8 µM (not active), the EC50 [2] was 26.9 µM (active) and the EC50 [3] was 86.3 µM (inconclusive). The IC50 [4] was > 39.8 µM (not active).
With `Cc1ccc(N(C)S(=O)(=O)c2ccc(C)cc2)cc1` the EC50 (Mucolipin-3) was 5.1 µM (active) and the EC50 (Ion channel NompC) was > 29.9 µM (not active).
In the case of `COC(=O)c1ccc(CSc2nc3ccccc3c(=O)n2-c2ccccc2)o1`, the IC50 [5] is reported as 13.6 µM (active), the EC50 [6] is reported as > 53 µM (inactive) and the IC50 [7] is reported as 858 nM (active). The IC50 [8] was 5.21 µM (active) and the IC50 [9] was 3.14 µM (active).
With `O=C(Cc1ccc(Cl)c(Cl)c1)Nc1ccccc1N1CCOCC1` the EC50 (Mucolipin-3) was 2.89 µM (active) and the EC50 (Ion channel NompC) was 13.4 µM (not active).
For `O=C(Nc1ccc2oc(-c3ccccc3F)nc2c1)c1ccc2c(c1)OCCO2`, the EC50 [10] was 31.1 µM (inactive).
For `O=C(C1=C(O)C(=O)N(CCN2CCOCC2)C1c1cccs1)c1cc2ccccc2o1` (stereo unspecified), the IC50 [1] was > 39.8 µM (not active) and the IC50 [4] was 6.71 µM (active).
For `Oc1cccc(-c2nc3ccc4ccccc4c3c3c2CCC3)c1`, the EC50 (Streptokinase A) was 27.8 µM (active), the CC50 [11] was > 40 µM (active) and the EC50 (Streptococcus) was 53.6 µM (active). For the same compound, the EC50 [12] was 10 µM (active), the IC50 [8] was 7.68 µM (active) and the IC50 [9] was 5.22 µM (active).
With `CCCCN(C)C(=O)c1nc2ccccn2c1CN1CCN(C/C=C/c2ccccc2)CC1` the IC50 [13] was 16.6 µM (not active) and the IC50 [14] was > 43.8 µM (not active).
For `O=C(Nc1cccc(Cl)c1)c1cc(N=Nc2ccc([N+](=O)[O-])cc2Cl)ccc1O`, the IC50 (Nonstructural protein 1) was 22.1 µM (active) and the IC50 [15] was 1.34 µM (active).
For `CCc1ccc(-c2nnn(CCC(=O)OC)n2)cc1`, the EC50 [16] was 5.58 µM (active), the EC50 (HT-1080) was > 50 µM (not active) and the AC50 (HEK293) was 16.2 µM (active). For the same compound, the IC50 [17] was > 80 µM (inactive).
With `CCn1c(=O)cc(OCC(=O)N(C)C2CCCCC2)c2ccccc21` the IC50 [17] was > 80 µM (inactive).
